Our source for the viability, T/C and IC50 values is PubChem BioAssay AID1963852 (Molecular Pharmacology Branch, DTP, NCI, 2024).

Where “and” joins values, the source holds several entries; their conditions need not be identical. Equal values may be shown once.

In the experiment the test system is 282377-053-R-J1-PDC complex spheroid viability. Briefly: Anticancer human tumor 282377-053-R-J1-PDC patient-derived colon adenocarcinoma cell line growth inhibition [POLQ]. As to conditions: for viability, T/C: stronger effect = lower value. How it is done:
Multicellular complex tumor spheroid response to Polymerase (POL) inhibitors (novobiocin, ART-558, RP6685) in combination with a variety of drugs and investigational agents in selected tumor cell lines
The POL inhibitors (novobiocin, ART-558, and RP6685) were evaluated both individually and in combination with standard of care and investigational anticancer small molecules within a complex spheroid model of solid tumors. . Complex spheroids include a stromal component modeled by human endothelial cells (HUVEC) and fibroblasts modeled by human mesenchymal stem cells (MSCs). The concentration ranges selected for each drug and investigational agent were based upon clinically achievable concentrations if the clinical Cmax of the agent was known.
Compounds. The drugs and investigational agents: novobiocin (NSC847541), ART-558 (NSC835418), RP-6685 (NSC848927), peposertib (NSC802822), ceralasertib (NSC780249), elimusertib (NSC800525), camonsertib (NSC841442), AZD-1390 (NSC803789), olaparib (NSC753686), talazoparib (NSC767125), rucaparib (NSC756644), sotorasib (NSC818433), MRTX-1133 (NSC836407), SN-38 (NSC673596), topotecan (NSC609699), epotoside (NSC141540), doxorubicin (NSC123127), gemcitabine (NSC613327), 5-fluorouracil (NSC19893), paclitaxel (NSC125973), vemurafenib (NSC761431), MSA-2 (NSC828583), SN-011 (NSC837082), adavosertib (NSC754352), prexasertib (NSC758257), carboplatin (NSC241240) and oxaliplatin (NSC266046), were obtained from the National Cancer Institute (NCI) Developmental Therapeutics Program Chemical Repository (21). The FDA-approved anticancer drug set is available from the Developmental Therapeutics Program at https://dtp.cancer.gov/organization/dscb/obtaining/. […] The stock solutions were prepared in dimethyl sulfoxide (DMSO, Sigma-Aldrich, St. Louis, MO, cat. D2650), except for the platinum compounds which were prepared in saline (Quality Biological, Gaithersburg, MD, cat. 114-055-101), at 800-fold the tested concentration and stored at -70 degrees C prior to their use. All drugs and investigational agents were tested over a range starting from a high concentration at or near the clinical Cmax and decreasing in half-log increments. If the clinical Cmax for an agent had not been determined, the highest concentration tested was 10 microM, except for SN-38, which was tested at a high concentration of 1 microM.
Cell Culture. All cells were maintained in an incubator at 37 degrees C and 5% CO2 with 95% humidity. The PDC lines were cultured according to standard operating procedures established by the NCI PDMR (https://pdmr.cancer.gov). Table 3 of the manuscript, lists the cell lines along with the number of the three cell types plated to form the mct-spheroids and media for tumor cell growth. After thawing, all PDC lines, except 997537-175-T-J1-PDC and 415267-285-R-J2-PDC, were cultured in Matrigel-coated flasks prepared with a working solution of 1X Ham's F-12 nutrient mix, without supplementation (Thermo Fisher Scientific, cat. 11765054), 100 U/mL penicillin-streptomycin (Thermo Fisher Scientific, cat. 15140122), and 2.5% Matrigel (Corning Inc., Corning, NY, cat. 354248) for the first three passages. The two PDC lines 997537-175-T-J1-PDC and 415267-285-R-J2-PDC were cultured on uncoated flasks. The 857933-349-R-J2-PDC line was cultured in 6C/Colon 1B media containing advanced DMEM/F-12 (Thermo Fisher Scientific, cat. 12634028), 10 mM HEPES (Thermo Fisher Scientific, cat. 15630080), 1X GlutaMAX supplement (Thermo Fisher Scientific, cat. 35050061), 0.1 mg/mL primocin (InvivoGen, San Diego, CA, cat. ant-pm-2), 10% defined fetal bovine serum, heat inactivated (HyClone Laboratories Inc., Logan, UT, cat. SH30070.03HI), 50% L-WRN conditioned media (ATCC, cat. CRL-3276), 1.25 mM N-Acetyl-L-cysteine (Sigma-Aldrich, cat. A9165), 10 mM nicotinamide (Sigma-Aldrich, cat. N0636), 1X B-27 supplement (Thermo Fisher Scientific, cat. 17504044), 1X N-2 supplement (Thermo Fisher Scientific, cat. […]
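Note: spheroids exposed to compounds for seven days.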
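Throughout, for viability, T/C: 100% = DMSO vehicle control viability.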

Regarding `C#Cc1c(F)ccc2cc(O)cc(-c3ncc4c(N5CC6CCC(C5)N6)nc(OCC56CCCN5CC(F)C6)nc4c3F)c12` (configuration not stated), the viability, T/C is 64.6% and 97.7% and 80.6% (compound 0.0316 µM); 88.7% and 85.6% and 110% (compound 0.1 µM); 112% and 102% and 114% (compound 0.316 µM); 99.1% and 101% and 114% (compound 1 µM); 84% and 93.9% and 105% (compound 3.16 µM); 74.8% and 83.1% and 86.3% (compound 10 µM). For the same compound, the IC50 (curve of compound) was above 10 µM.

As for `CC1COCCN1c1cc(C2(O)CC3CCC(C2)O3)c2cnn(-c3ccn[nH]3)c2n1` (configuration not stated), the viability, T/C (compound 0.0316 µM) was 79.8% and 96.8% and 76.4%; the viability, T/C (compound 0.1 µM) was 77% and 69.1% and 83.1%; the viability, T/C (compound 0.316 µM) is 57.1% and 59.1% and 53.6%; the viability, T/C (compound 1 µM) is 29.4% and 34.3% and 49.3%; the viability, T/C (compound 3.16 µM) was 27.7% and 24.9% and 49.9%; the viability, T/C (compound 10 µM) is 16.7% and 22% and 41.5%. Besides, for the setting “curve of compound”, the IC50 is 0.431 µM and 0.391 µM and 0.592 µM.

As to `CCc1cc2c(N3CCc4c(cc(Cn5ccnc5)cc4-c4cn(C)nc4C(F)(F)F)C3=O)cc(C)nc2c(OC)n1`, the viability, T/C is 103% and 99% and 81.1% (compound 0.0316 µM); 120% and 97.4% and 84.6% (compound 0.1 µM); 124% and 98% and 87.1% (compound 0.316 µM); 144% and 89.3% and 98.1% (compound 1 µM); 112% and 113% and 109% (compound 3.16 µM); 72.1% and 119% and 109% (compound 10 µM). For the same compound, the IC50 (curve of compound) was above 10 µM.

Turning to `CCc1cc2c(N3CCc4c(cc(Cn5ccnc5)cc4-c4cn(C)nc4C(F)(F)F)C3=O)ccnc2c(OC)n1`, the viability, T/C (compound 0.0316 µM) is 128% and 102% and 81.9%; the viability, T/C (compound 0.1 µM) is 138% and 96.1% and 88.3%; the viability, T/C (compound 0.316 µM) was 140% and 95% and 77.2%; the viability, T/C (compound 1 µM) was 129% and 82.6% and 88.5%; the viability, T/C (compound 3.16 µM) was 121% and 93.2% and 89.4%; the viability, T/C (compound 10 µM) was 88% and 110% and 120%. In addition, for the setting “curve of compound”, the IC50 was above 10 µM.

Consider `COc1cc2cc(C(=O)CCC(=O)O)sc2cc1OC`, for which the viability, T/C by setting is: (compound 0.0316 µM) 94.6% and 86.1% and 105%; (compound 0.1 µM) 98.1% and 93.6% and 93.2%; (compound 0.316 µM) 108% and 97% and 105%; (compound 1 µM) 111% and 96.9% and 98.6%; (compound 3.16 µM) 103% and 107% and 127%; (compound 10 µM) 93.6% and 102% and 101%. Moreover, where the note is “curve of compound”, the half-maximal inhibitory concentration (IC50) is above 10 µM.

For the compound `Cc1cccc(N(C)C(=O)C2C(O)CCN2c2nc(C)cc(C(F)(F)F)c2C#N)c1` (configuration not stated), the viability, T/C (compound 0.1 µM) is 105% [middle of 13 runs]. The IC50 is, setting by setting: (compound alone, run of 10/31/2023) above 10 µM; (compound alone, run of 11/06/2023) above 10 µM.

On to `O=C(Nc1ccc(O)c(NS(=O)(=O)c2ccc(F)cc2)c1)c1ccc(-c2ccccc2)cc1`, for which the viability, T/C by setting is: (compound 0.0316 µM) 110% and 91.2% and 91.8%; (compound 0.1 µM) 98.8% and 86.6% and 102%; (compound 0.316 µM) 108% and 92.9% and 112%; (compound 1 µM) 113% and 95.5% and 102%; (compound 3.16 µM) 116% and 112% and 121%; (compound 10 µM) 116% (2×) and 109%. The half-inhibitory concentration (IC50) (curve of compound) was above 10 µM.

As to `COc1cc(C2c3cc4c(cc3C(OC3OC5COC(C)OC5C(O)C3O)C3COC(=O)C23)OCO4)cc(OC)c1O` (configuration not stated) + COC1C(OC(N)=O)C(O)C(Oc2ccc3c(O)c(NC(=O)c4ccc(O)c(CC=C(C)C)c4)c(=O)oc3c2C)OC1(C)C, the IC50 is above 10 µM (curve of first compound, second compound 0.0316 µM); above 10 µM (curve of first compound, second compound 0.1 µM); 9.29 µM (curve of first compound, second compound 0.316 µM); 8.39 µM (curve of first compound, second compound 1 µM); above 10 µM (curve of first compound, second compound 3.16 µM); above 10 µM (curve of first compound, second compound 10 µM). In addition, the viability, T/C was 95.7% (second compound 0.0316 µM, first compound 0.0316 µM); 111% (second compound 0.0316 µM, first compound 0.1 µM); 97.1% (second compound 0.0316 µM, first compound 0.316 µM); 80% (second compound 0.0316 µM, first compound 1 µM); 78.3% (second compound 0.0316 µM, first compound 3.16 µM); 49.5% (second compound 0.0316 µM, first compound 10 µM). In addition, the viability, T/C is, setting by setting: (second compound 0.1 µM, first compound 0.0316 µM) 75.8%; (second compound 0.1 µM, first compound 0.1 µM) 92.8%; (second compound 0.1 µM, first compound 0.316 µM) 102%; (second compound 0.1 µM, first compound 1 µM) 90.7%; (second compound 0.1 µM, first compound 3.16 µM) 67.9%; (second compound 0.1 µM, first compound 10 µM) 53.5%. In addition, the viability, T/C is 101% (second compound 0.316 µM, first compound 0.0316 µM); 80.1% (second compound 0.316 µM, first compound 0.1 µM); 85.3% (second compound 0.316 µM, first compound 0.316 µM); 77% (second compound 0.316 µM, first compound 1 µM); 73.8% (second compound 0.316 µM, first compound 3.16 µM); 46% (second compound 0.316 µM, first compound 10 µM). Further, the viability, T/C runs as follows: (second compound 1 µM, first compound 0.0316 µM) 89%; (second compound 1 µM, first compound 0.1 µM) 86.8%; (second compound 1 µM, first compound 0.316 µM) 86%; (second compound 1 µM, first compound 1 µM) 81.1%; (second compound 1 µM, first compound 3.16 µM) 77.3%; (second compound 1 µM, first compound 10 µM) 45%. Further, the viability, T/C (second compound 3.16 µM, first compound 0.0316 µM) was 76.5%; the viability, T/C (second compound 3.16 µM, first compound 0.1 µM) was 96.1%; the viability, T/C (second compound 3.16 µM, first compound 0.316 µM) was 97.2%; the viability, T/C (second compound 3.16 µM, first compound 1 µM) was 89.8%; the viability, T/C (second compound 3.16 µM, first compound 3.16 µM) was 70.1%; the viability, T/C (second compound 3.16 µM, first compound 10 µM) was 51.7%. Moreover, the viability, T/C was 87.4% (second compound 10 µM, first compound 0.0316 µM); 83.2% (second compound 10 µM, first compound 0.1 µM); 118% (second compound 10 µM, first compound 0.316 µM); 68.5% (second compound 10 µM, first compound 1 µM); 70.3% (second compound 10 µM, first compound 3.16 µM); 53% (second compound 10 µM, first compound 10 µM).
